PubChem BioAssay (NCI)
Where “and” joins values, the source holds several entries; their conditions need not be identical. Equal entries are not always repeated.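 How tested: cells in 96-well plates exposed to compound for 48 hours at five concentrations. GI50: concentration for 50% inhibition of growth. TGI marks complete inhibition of growth.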

Experiments:
Assay in all cases: growth of human tumour cells (NCI), 48 h
[1] = test system: HCT-15 colon
[2] = test system: COLO 205 colon
[3] = test system: HOP-62 NSCLC
[4] = test system: DU-145 prostate
[5] = test system: SW-620 colon
[6] = test system: NCI/ADR-RES ovarian
[7] = test system: NCI-H23 lung
[8] = test system: OVCAR-5 ovarian
[9] = test system: A498 renal
[10] = test system: RXF 393 renal

Compound | TGI [1] | TGI [2] [µM] | TGI [3] | TGI [4] | TGI [5] | TGI [6] | TGI [7] [µM] | TGI [8] | TGI [9] | TGI [10] | GI50 [1] [µM] | GI50 [2] [µM] | GI50 [3] [µM] | GI50 [5] [µM] | GI50 [6] | GI50 [7] [µM] | GI50 [10] [µM] | GI50 [4] [µM] | GI50 [8] [µM] | GI50 [9] [µM]
OC1C=C2C3CN(Cc4cc5c(cc43)OCO5)[C@H]2C[C@@H]1O (some centres undefined) | 34.1 µM | > 100 | > 100 µM | 71.2 µM | > 100 µM | 75.6 µM | 67.4 | 73.3 µM | 39.9 µM | 21.4 µM |  |  |  |  |  |  |  |  |  | 
O=C1CCC(NC(=O)Cc2ccc(O)cc2)C(=O)N1 (centres undefined) | > 2500 µM | > 2500 |  |  | > 2500 µM |  | > 2500 | > 2500 µM | > 2500 µM |  |  |  |  |  |  |  |  |  |  | 
O=C(O)C(Cc1ccccc1)N1C(=O)c2ccccc2C1=O (centres undefined) | > 100 µM | > 100 | > 100 µM | > 100 µM | 84.9 µM | > 100 µM | > 100 | > 100 µM | > 100 µM | > 100 µM |  |  |  |  |  |  |  |  |  | 
N=C(N)C(N=Nc1ccccc1)C(=N)N (centres undefined) | > 100 µM | > 100 | > 100 µM | > 100 µM | > 100 µM | > 100 µM | > 100 | > 100 µM | > 100 µM | > 100 µM |  |  |  |  |  |  |  |  |  | 
O=C1CC(N2C(=O)/C(=C/C(Cl)=C\c3ccc([N+](=O)[O-])cc3)SC2=S)C(=O)N1c1ccc(Cl)cc1 (centres undefined) | 8.2 µM | 3.76 | 5.5 µM |  | 3.89 µM | 6.19 µM | 4.31 |  |  | 2.72 µM | 0.599 | 1.4 | 1.73 | 0.508 | 1.01 µM | 1.64 | 1.26 |  |  | 
N#CCc1[nH]nc2nc(SCc3ccccc3)nc(N3CCCCC3)c12 | > 100 µM | 34.7 | 35.5 µM | 33.6 µM | 35 µM | 32.3 µM | 33.1 | 36 µM | 73.4 µM | 32.2 µM |  |  |  |  |  |  |  |  |  | 
CCn1cc(C(=O)O)c(=O)c2cc(F)c(N3CCN(Cn4c(O)c(N=NC(=O)c5ccncc5)c5cc(Cl)ccc54)CC3)cc21 | > 100 µM | > 100 | 55.2 µM | > 100 µM | > 100 µM | > 100 µM | > 100 | > 100 µM | > 100 µM | 51.3 µM |  |  |  |  |  |  |  |  |  | 
O=C1c2ccccc2-c2ccc(O)cc21 | 49.6 µM | 58.4 | > 100 µM | 49.1 µM | > 100 µM | 84.5 µM | 38.5 | 68.5 µM | 41.8 µM | 32.9 µM |  |  |  |  |  |  |  |  |  | 
C=C1C(C2(C)C=CC(=O)OC3(C)COC(=O)CC32)C(OC=O)C(OC(=O)C(O)C(C)CC)C2(C)C(c3ccoc3)CC(OC(C)=O)C12O (centres undefined) | > 100 µM | > 100 | > 100 µM | > 100 µM | > 100 µM | > 100 µM | > 100 | > 100 µM | > 100 µM | > 100 µM |  |  |  |  |  |  |  |  |  | 
O=c1c2c([nH]c3nccn13)CCCC2 | > 10 µM | > 10 | > 10 µM | > 10 µM | > 10 µM | > 10 µM | > 10 | > 10 µM | > 10 µM | > 10 µM |  |  |  |  |  |  |  |  |  | 
CC(=O)C1=C(O)C2(O)C(=O)c3c(c(C)c4ccc(C)c(O)c4c3O)CC2C(N)C1=O (centres undefined) | 9.99 µM | 3.34 | 10.7 µM | 14.7 µM | 23.6 µM | 13.7 µM | 7.14 | 14 µM | 8.45 µM | 20 µM |  |  |  |  | 1.89 µM |  |  | 2.41 |  | 
CCC(C)C(NC(=O)C(CCCCN)NC(=O)C(NC(=O)C(CCC(N)=O)NC(=O)C(CCCNC(=N)N)NC(C)=O)C(C)CC)C(=O)NC(Cc1c[nH]c2ccccc12)C(=O)NC(Cc1ccccc1)C(=O)NC(CCC(N)=O)C(=O)NC(CC(N)=O)C(=O)NC(CCCNC(=N)N)C(=O)NC(CCCNC(=N)N)C(=O)NC(CCSC)C(=O)NC(CCCCN)C(=O)NC(Cc1c[nH]c2ccccc12)C(=O)NC(CCCCN)C(=O)NC(CCCCN)C(N)=O (centres undefined) | > 50 µM | > 50 | > 50 µM | > 50 µM | > 50 µM | > 50 µM | > 50 | 22.5 µM | > 50 µM | > 50 µM |  |  |  |  |  |  |  |  |  | 
O=C(NN1C(=O)/C(=C/c2ccc(Cl)cc2)N=C1c1ccccc1)c1c(Cl)c(Cl)c(Cl)c(Cl)c1-c1nc2ccccc2[nH]1 | 28.3 µM | > 100 | > 100 µM | 61.9 µM | > 100 µM | 42.2 µM | 34.9 | > 100 µM | 44.5 µM |  |  |  |  |  |  |  |  |  |  | 
Cc1c(Cl)c(=O)oc2cc(OCC(=O)c3ccccc3)ccc12 | > 100 µM | > 100 | 67.8 µM | > 100 µM | > 100 µM | > 100 µM | > 100 | > 100 µM | > 100 µM | > 100 µM |  |  |  |  |  |  |  |  |  | 
C[N+]1(C)C2CCC1CC(OC(=O)C(CO)c1ccccc1)C2 (centres undefined) | > 100 µM | > 100 | > 100 µM | > 100 µM | > 100 µM | > 100 µM | > 100 | > 100 µM | > 100 µM | > 100 µM |  |  |  |  |  |  |  |  |  | 
O=C1OC(c2ccccc2)=N/C1=C/c1cccs1 | > 100 µM |  | > 100 µM |  | > 100 µM | 83.7 µM |  | > 100 µM |  | > 100 µM |  |  |  |  |  |  |  |  |  | 
Cc1nc(Cl)c(C)c(Cl)n1 | > 100 µM | > 100 | > 100 µM | > 100 µM | > 100 µM | > 100 µM | > 100 | > 100 µM | > 100 µM | > 100 µM |  |  |  |  |  |  |  |  |  | 
CC(=O)C1(c2ccccc2)CCCN(C)CC1 (centres undefined) | > 100 µM | > 100 | > 100 µM | > 100 µM | > 100 µM | > 100 µM | > 100 | > 100 µM | > 100 µM |  |  |  |  |  |  |  |  |  |  | 
Cc1c(N)nc([C@H](CC(N)=O)NC[C@H](N)C(N)=O)nc1C(=O)N[C@H](C(=O)N[C@H](C)[C@@H](O)[C@H](C)C(=O)N[C@H](C(=O)NCCc1nc(-c2nc(C(=O)NCCC[S+](C)C)cs2)cs1)[C@@H](C)O)C(OC1OC(CO)C(O)C(O)C1OC1OC(CO)C(O)C(OC(N)=O)C1O)c1cnc[nH]1 (some centres undefined) | 29 µM [middle of 4 runs] |  |  | 20.2 µM and 5.4 µM and 30 µM |  | 12.8 µM and 4.87 µM and 5.61 µM |  |  | 19.6 µM and 29 µM and 41.5 µM |  |  |  |  |  | 1.21 µM and 1.09 µM |  |  |  |  | 
O=C1CC(n2cccc2)c2cc(Br)sc21 (centres undefined) | > 100 µM | > 100 | > 100 µM | > 100 µM | > 100 µM | > 100 µM | > 100 | > 100 µM | > 100 µM |  |  |  |  |  |  |  |  |  |  | 
CN1CCC23c4ccccc4NC1C21CCN(C)C3Nc2ccccc21 | > 375 µM | > 375 | > 375 µM |  | > 375 µM | > 375 µM | > 375 | > 375 µM | > 375 µM | > 375 µM |  |  |  |  |  |  |  |  |  | 
Cc1c2c(cc3c1[nH]c1ccccc13)C(c1ccc(F)cc1)=NCC2 | 12.4 µM | 2.15 | 6.54 µM |  | 5.46 µM | 2.36 µM | 7.56 | 9.62 µM | 4.73 µM | 4.32 µM |  |  |  |  |  |  |  |  |  | 
OC(c1ccc(-c2ccccc2)cc1)(c1ccc(-c2ccccc2)cc1)c1ccc(-c2ccccc2)cc1 | > 100 µM | > 100 | > 100 µM | > 100 µM |  | > 100 µM | > 100 | > 100 µM |  | > 100 µM |  |  |  |  |  |  |  |  |  | 
CCCCC1Cc2cc(OC)ccc2-c2nc3cc(OC)ccc3n21 (centres undefined) (tested in a mixture with another compound) | 11.3 µM | 18.7 | 29.2 µM | 30 µM | 27.8 µM | 26.4 µM | 27.8 | 31.4 µM |  | 30.8 µM |  |  |  |  |  |  |  |  |  | 
COC1(OC)C[C@H](C)[C@@]23O[C@]24c2cc(O)c5c(c2N[C@H]3C#C/C=C\C#C[C@]14O)C(=O)c1ccccc1C5=O | 0.24 µM and 0.543 µM | 0.0369 | 0.00216 µM and 0.0173 µM | 0.00686 µM and 0.048 µM | 0.167 µM and 0.215 µM |  | 0.0229 | 0.169 µM and 0.111 µM | 0.00964 µM and 0.0459 µM | 0.0256 µM and 0.0186 µM | 0.0118 |  | < 0.001 | 0.00373 | 0.00223 µM |  | 0.00163 | 0.00164 | 0.0206 | 0.005
C=CCOCCCC(=O)C(=[N+]=[N-])C(=O)OC | > 100 µM | > 100 |  | > 100 µM | > 100 µM |  | > 100 | > 100 µM | > 100 µM | > 100 µM |  |  |  |  |  |  |  |  |  | 
O=C1c2scnc2-c2nccc3c2c1nc1ccccc13 | 1.28 µM | 2.68 | 8.18 µM | 3.14 µM |  | > 100 µM | 1.2 | > 24.8 µM | 2.52 µM | 3.98 µM |  |  |  |  |  |  |  |  |  | 
Cc1cc(C)n(C(=O)C(C)Sc2nnc(SC(C)C(=O)n3nc(C)cc3C)s2)n1 (centres undefined) | > 100 µM | > 100 | > 100 µM | > 100 µM | > 100 µM | > 100 µM | > 100 | > 100 µM | > 100 µM | > 100 µM |  |  |  |  |  |  |  |  |  | 
